The text below walks through data of publication PMC7862923 (Nature chemical biology, 2020).

Type in all cases: cell-based
Test [1] has as its target BRAF(V600E) (Homo sapiens, UniProt P15056, V600E). Nature of the test: Immunoblot of BRAF protein levels in A375 cells. The settings on record: 24 h.
The subject of test [2] is pMEK and pERK levels. Nature of the test: Pathway signaling. The settings on record: A375 cells, 100 nM, 24 h.
In test [3] the target is BRAF(WT) (Homo sapiens, UniProt P15056). Nature of the test: Immunoblot of BRAF levels in HCT116 cells. The settings on record: KRAS(G13D), 24h.
Chain of BRAF(WT) (P15056 whole entry): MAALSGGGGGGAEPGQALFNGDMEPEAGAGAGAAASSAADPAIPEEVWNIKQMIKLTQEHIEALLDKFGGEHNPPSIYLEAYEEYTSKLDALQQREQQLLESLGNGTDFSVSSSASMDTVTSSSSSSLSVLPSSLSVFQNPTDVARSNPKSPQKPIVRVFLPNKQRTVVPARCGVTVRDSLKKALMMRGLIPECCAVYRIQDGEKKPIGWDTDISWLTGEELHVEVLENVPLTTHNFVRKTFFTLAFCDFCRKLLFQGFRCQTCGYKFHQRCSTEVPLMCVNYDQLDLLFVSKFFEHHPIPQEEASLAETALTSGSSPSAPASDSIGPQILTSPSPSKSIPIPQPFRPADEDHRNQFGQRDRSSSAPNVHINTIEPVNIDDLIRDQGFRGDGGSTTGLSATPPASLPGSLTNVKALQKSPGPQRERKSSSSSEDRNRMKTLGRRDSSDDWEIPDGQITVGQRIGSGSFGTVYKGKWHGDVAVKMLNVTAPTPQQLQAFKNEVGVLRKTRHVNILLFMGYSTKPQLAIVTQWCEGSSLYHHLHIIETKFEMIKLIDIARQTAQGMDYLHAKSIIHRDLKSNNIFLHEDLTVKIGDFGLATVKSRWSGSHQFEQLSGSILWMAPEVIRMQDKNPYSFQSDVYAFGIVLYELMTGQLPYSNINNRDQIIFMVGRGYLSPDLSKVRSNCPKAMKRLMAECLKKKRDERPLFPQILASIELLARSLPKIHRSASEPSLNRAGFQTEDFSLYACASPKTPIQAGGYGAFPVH
The subject of test [4] is A375 cells. Nature of the test: RNAseq transcriptome analysis. The following applies: 200nM, 20 hours.
Test [5] deals with HCT116 cell line. Nature of the test: Proliferation and pathway signaling. The following applies: HCT116, KRAS(G13D).
Test [6] deals with pERK. Nature of the test: pERK AlphaLISA in MeWo cells. Background: Alpha assays give light when donor and acceptor beads are brought close together.

Chain of BRAF(V600E) (P15056 whole entry V600E): as the sequence (P15056 whole entry) above, with V600E counted along it

On to `CCCS(=O)(=O)Nc1ccc(F)c(-n2cc(-c3cncnc3)c3nc(N(C)C4CCN(CC)CC4)ccc32)c1F` [BI 882370*], for which the “reduction of BRAF(V600E) protein levels” value in test [1] (100 nM) is recorded as “no effect on BRAF(V600E) levels”. The “repression of pathway signaling” value in test [2] was “comparable to P4B and P5B”. For the same compound, the “ability to reduce BRAF levels” value in test [3] is on record as “no ability to reduce BRAF levels”. Besides, in test [4], the “number of genes altered (differentially expressed)” value worked out at 195. The “inhibiting cell proliferation and pathway signaling” value in test [5] is given as “equally ineffective”. Also, the “effect on ERK activation (pERK)” value in test [6] is “induced paradoxical ERK activation”.

Turning to `Nc1cccc2c1C(=O)N(C1CCC(=O)NC1=O)C2=O` (stereo not shown) [pomalidomide], the “effect on BRAF protein levels (degrader function)” value in test [1] is given as “failed to reduce BRAF protein levels”.
